The values that follow come from publication PMC12090182, “Repurposing of the RIPK1-Selective Benzo[1,4]oxazepin-4-one Scaffold for the Development of a Type III LIMK1/2 Inhibitor” (ACS Chemical Biology, 2025).

Several values for one entry are separate records, joined by “and”; a condition that tells them apart may be missing. Equal entries are not always repeated. Where two headings read alike, the source gives them in different places.

One assay deals with T1, RIPK1 (Homo sapiens, UniProt Q13546).
T1 construct: full-length LIMK1/2, RIPK1, BTK, and LRRK2 cloned in a frame in a NanoLuc-vector (Promega); host or cells: HEK293T
T1 sequence (Q13546 1-671): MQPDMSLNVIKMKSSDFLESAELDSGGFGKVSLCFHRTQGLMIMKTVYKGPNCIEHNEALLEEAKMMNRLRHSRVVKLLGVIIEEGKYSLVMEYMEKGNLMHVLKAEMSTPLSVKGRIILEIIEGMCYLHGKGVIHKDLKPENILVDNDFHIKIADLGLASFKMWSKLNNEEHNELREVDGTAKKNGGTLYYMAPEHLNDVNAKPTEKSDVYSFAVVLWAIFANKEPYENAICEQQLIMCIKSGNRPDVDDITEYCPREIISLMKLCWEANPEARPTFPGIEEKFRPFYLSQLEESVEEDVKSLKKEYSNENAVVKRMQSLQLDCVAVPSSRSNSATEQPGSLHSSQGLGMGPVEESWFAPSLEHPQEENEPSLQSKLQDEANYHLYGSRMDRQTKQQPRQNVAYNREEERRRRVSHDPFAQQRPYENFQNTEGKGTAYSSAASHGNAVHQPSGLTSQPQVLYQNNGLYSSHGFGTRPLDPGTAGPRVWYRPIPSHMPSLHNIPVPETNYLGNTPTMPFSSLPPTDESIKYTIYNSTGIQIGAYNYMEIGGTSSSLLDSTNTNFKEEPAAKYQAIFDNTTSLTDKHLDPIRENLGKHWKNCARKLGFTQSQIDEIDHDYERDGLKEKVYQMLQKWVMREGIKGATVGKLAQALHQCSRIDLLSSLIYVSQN
The assay can be described thus: NanoBRET cellular target engagement. The class given is cell-based. The note with it: RIPK1, HEK293T cells. As to the method: The assay was performed as described previously.[31],[32] In brief, full-length LIMK1/2, RIPK1, BTK, and LRRK2 cloned in a frame in a NanoLuc-vector (Promega) were transfected into HEK293T cells (ATCC CRL-1573) using FuGENE HD (Promega, E2312), and proteins were allowed to express for 20 h. The serially diluted inhibitor and NanoBRET Kinase Tracer (Promega) used at the previously determined Tracer KD,app (Table S1) were pipetted into white 384-well plates (Greiner 781 207) using an ECHO 550 acoustic dispenser (Labcyte). The corresponding transfected cells were added and reseeded at a density of 2 × 10^5 cells/mL after trypsinization and resuspension in Opti-MEM without phenol red (Life Technologies). The system was allowed to equilibrate for 2 h at 37 °C and 5% CO2 prior to BRET measurements. To measure BRET, a NanoBRET Nano-Glo substrate and an extracellular NanoLuc inhibitor (Promega, N2160) were added as per the manufacturer's protocol, and filtered luminescence was measured on a PHERAstar plate reader (BMG Labtech) equipped with a luminescence filter pair (a 450 nm BP filter (donor) and a 610 nm LP filter (acceptor)). Competitive displacement data were then plotted using GraphPad Prism 10 software using a normalized three-parameter curve fit with the following equation: Y = 100/( [drawing 1] ).
(Bioluminescence resonance energy transfer reports proximity on the nanometre scale.)

Assay [1] deals with cofilin phosphorylation (LIMK1/2 substrate). Briefly: Western blot of cofilin phosphorylation in LN-229 cells. The class given is cell-based, human. The following applies: 6 h. How it is done: LN-229, a human glioblastoma cell line, was cultured until passage 17 in Dulbecco’s modified Eagle’s medium (DMEM) with GlutaMAX, 10% fetal bovine serum (FBS), and 1% penicillin/streptomycin. Cells were maintained in an incubator with 5% CO2 at 37 °C. For the treatment, 3 × 10^5 cells were plated and treated with the tested compounds at the indicated concentrations and DMSO as the control for 6 h. The cells were then lysed using RIPA buffer (50 mM Tris HCl pH 7.4, 150 mM NaCl, 1% Triton X-100, 1% NaDOC, 0.1% SDS, and 1 mM EDTA), freshly supplemented with protease and phosphatase inhibitor cocktails (Sigma-Aldrich, Darmstadt, Germany). After a 1 h incubation on ice, the lysates were centrifuged for 30 min at 250g, and the protein-containing supernatant was collected. The protein concentrations were determined using the protein assay dye reagent concentrate (Bradford, Bio-Rad, Hercules, CA, USA) and prediluted protein assay standard bovine serum albumin (BSA) set (Thermo Fisher Scientific, Darmstadt, Germany). Then, equal amounts of protein were mixed with a Roti-Load 1 dye (Carl Roth, Karlsruhe, Germany) and 4× Laemmli buffer (Bio-Rad, Hercules, CA, USA), denatured at 95 °C, and run on NuPAGE 4–12% bis-Tris gels (Thermo Fisher Scientific, Darmstadt, Germany). Proteins were blotted on methanol-activated PVDF transfer membranes (Thermo Fisher Scientific, Darmstadt, Germany) using the wet transfer method with transfer buffer (Thermo Fisher Scientific, Darmstadt, Germany) and 20% methanol. Subsequently, the membranes were blocked with 5% milk or 3% BSA in 0.1% TBS-T for 1 h at RT and incubated overnight at 4 °C with primary antibodies: GAPDH (catalog no. 2118, Cell Signaling Technology, MA, USA, 1:1000 dilution), LIMK1 (catalog no. 3842, Cell Signaling Technology, 1:1000 dilution), LIMK2 (catalog no. 3845, 1:500 dilution), p-cofilin (catalog no. 3313, Cell Signaling Technology, 1:1000 dilution), cofilin (catalog no. 5175, Cell Signaling Technology, 1:1000 dilution). […]
(A western blot detects proteins with antibodies after separation by electrophoresis.)

Assay [2] addresses ABL1(Y253F)-phosphorylated (Homo sapiens, UniProt P00519, Y253F). Briefly: biochemical. The following applies: read-out: Percent Control. The class given is binding.
The next assay deals with EGFR(G719S) (Homo sapiens, UniProt P00533, G719S). Briefly: biochemical. Type of assay: binding. The note with it: 1000 nM, read-out: Percent Control.
A further assay deals with KIT(D816H) (Homo sapiens, UniProt P10721, D816H). Briefly: biochemical. The class given is binding. The following applies: 1000 nM, read-out: Percent Control.
In another assay the target is FLT3(D835H) (Homo sapiens, UniProt P36888, D835H). The assay can be described thus: biochemical. The class given is binding. The following applies: compound concentration 100 nM; Entrez FLT3; read-out: Percent Control.
For another assay, the target named is FLT3(K663Q) (Homo sapiens, UniProt P36888, K663Q). Briefly: biochemical. Type of assay: binding. The note with it: compound concentration 100 nM; Entrez FLT3; read-out: Percent Control.
A further assay has as its target PIK3CA(E545A) (Homo sapiens, UniProt P42336, E545A). The assay can be described thus: biochemical. The class given is binding. The following applies: compound concentration 100 nM; Entrez PIK3CA; read-out: Percent Control.

Chain of KIT(D816H) (P10721 26-976 D816H): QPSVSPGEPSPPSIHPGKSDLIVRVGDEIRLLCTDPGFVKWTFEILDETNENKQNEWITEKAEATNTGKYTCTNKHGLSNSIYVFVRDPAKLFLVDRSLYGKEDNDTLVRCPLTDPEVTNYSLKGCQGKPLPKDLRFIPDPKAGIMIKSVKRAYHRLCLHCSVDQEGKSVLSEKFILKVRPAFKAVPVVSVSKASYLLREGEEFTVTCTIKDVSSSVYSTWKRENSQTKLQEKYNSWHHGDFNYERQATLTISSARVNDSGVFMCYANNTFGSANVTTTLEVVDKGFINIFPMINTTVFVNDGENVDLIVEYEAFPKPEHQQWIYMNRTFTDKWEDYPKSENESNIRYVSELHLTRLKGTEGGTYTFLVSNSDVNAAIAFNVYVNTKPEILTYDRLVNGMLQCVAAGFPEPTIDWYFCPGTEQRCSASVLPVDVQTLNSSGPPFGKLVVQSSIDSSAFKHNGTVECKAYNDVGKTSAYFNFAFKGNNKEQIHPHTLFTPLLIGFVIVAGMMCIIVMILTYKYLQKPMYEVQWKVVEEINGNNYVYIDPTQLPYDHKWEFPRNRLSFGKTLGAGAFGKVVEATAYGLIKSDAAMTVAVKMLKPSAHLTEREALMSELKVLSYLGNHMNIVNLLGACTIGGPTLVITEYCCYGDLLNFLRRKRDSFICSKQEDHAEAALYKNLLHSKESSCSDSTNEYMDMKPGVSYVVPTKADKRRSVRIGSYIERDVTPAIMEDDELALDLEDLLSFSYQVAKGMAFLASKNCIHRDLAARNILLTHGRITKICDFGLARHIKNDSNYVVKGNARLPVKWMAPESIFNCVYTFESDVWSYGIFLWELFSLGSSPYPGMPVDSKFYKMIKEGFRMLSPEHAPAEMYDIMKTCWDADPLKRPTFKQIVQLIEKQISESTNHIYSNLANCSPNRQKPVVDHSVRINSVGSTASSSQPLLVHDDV
Chain of EGFR(G719S) (P00533 25-1210 G719S): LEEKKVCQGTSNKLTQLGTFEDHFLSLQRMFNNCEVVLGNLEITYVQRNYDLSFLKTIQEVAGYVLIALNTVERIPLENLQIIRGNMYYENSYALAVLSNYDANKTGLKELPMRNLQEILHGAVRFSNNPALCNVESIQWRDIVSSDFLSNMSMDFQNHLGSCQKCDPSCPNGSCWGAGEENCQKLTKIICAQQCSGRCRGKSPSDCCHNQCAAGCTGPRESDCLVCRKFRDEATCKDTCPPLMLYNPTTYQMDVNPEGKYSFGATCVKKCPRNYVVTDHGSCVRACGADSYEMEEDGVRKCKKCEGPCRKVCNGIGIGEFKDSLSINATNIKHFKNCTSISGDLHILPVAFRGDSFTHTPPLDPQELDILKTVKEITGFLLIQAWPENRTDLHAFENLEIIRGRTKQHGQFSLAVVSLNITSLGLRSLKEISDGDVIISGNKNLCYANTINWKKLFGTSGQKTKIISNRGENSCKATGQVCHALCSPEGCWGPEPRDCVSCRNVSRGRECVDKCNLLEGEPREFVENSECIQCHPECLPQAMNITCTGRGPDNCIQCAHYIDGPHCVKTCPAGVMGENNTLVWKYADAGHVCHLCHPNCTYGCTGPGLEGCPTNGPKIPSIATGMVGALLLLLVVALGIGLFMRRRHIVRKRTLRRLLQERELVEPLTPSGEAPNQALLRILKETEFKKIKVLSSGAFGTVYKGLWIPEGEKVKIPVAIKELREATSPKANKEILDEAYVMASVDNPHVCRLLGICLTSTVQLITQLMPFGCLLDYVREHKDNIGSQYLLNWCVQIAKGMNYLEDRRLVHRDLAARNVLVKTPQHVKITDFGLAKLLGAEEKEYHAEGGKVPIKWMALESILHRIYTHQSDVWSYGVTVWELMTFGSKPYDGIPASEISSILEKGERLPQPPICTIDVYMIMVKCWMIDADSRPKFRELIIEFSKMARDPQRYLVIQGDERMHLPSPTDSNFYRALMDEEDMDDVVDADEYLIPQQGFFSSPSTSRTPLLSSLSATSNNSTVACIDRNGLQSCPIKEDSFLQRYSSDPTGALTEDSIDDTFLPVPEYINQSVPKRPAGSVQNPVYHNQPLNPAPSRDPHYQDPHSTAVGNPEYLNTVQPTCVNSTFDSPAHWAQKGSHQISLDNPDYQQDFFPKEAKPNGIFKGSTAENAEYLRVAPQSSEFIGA
Chain of PIK3CA(E545A) (P42336 whole entry E545A): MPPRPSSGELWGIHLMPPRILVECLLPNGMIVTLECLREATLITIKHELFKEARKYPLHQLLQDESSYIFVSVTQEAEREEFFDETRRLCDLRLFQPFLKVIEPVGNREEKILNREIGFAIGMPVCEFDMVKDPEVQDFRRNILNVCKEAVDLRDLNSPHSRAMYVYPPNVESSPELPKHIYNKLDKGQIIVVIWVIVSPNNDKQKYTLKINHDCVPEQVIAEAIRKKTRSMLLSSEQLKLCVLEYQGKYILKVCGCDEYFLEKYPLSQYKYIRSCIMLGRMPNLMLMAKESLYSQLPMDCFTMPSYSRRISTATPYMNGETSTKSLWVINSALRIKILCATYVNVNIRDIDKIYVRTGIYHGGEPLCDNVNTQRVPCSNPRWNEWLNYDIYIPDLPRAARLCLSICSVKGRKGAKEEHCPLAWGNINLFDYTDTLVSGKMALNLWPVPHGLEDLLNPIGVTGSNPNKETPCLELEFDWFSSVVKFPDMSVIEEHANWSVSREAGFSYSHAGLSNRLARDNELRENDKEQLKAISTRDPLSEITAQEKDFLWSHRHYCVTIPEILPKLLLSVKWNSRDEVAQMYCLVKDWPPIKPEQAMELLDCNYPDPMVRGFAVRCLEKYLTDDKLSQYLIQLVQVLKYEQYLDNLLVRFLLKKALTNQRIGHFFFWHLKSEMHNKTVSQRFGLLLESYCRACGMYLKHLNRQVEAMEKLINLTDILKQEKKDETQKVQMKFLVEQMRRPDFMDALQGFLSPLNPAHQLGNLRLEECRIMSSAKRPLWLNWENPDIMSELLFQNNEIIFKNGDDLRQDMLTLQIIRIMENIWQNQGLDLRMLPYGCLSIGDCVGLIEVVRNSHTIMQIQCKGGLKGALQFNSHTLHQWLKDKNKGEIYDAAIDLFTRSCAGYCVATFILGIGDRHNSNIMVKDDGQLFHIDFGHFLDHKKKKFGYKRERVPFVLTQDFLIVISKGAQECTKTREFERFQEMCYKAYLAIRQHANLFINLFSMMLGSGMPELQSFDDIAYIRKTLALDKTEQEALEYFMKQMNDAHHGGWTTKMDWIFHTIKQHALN

By EC50 is commonly meant the concentration that produces a half-maximal response. For the molecule `CN1C(=O)[C@@H](N2CCc3c(C(N)=O)nn(Cc4ccccc4)c3C2=O)COc2ccccc21` [Compound 11], the EC50 on RIPK1 (read-out: EC50 (NanoBRET)) worked out at 3500 nM. Further, the “cofilin phosphorylation (Western blot)” value in assay [1] (5 μM) is “no effect”.
Consider `CN1C(=O)[C@@H](N2CCc3c(nn(Cc4ccccc4)c3C(N)=O)C2=O)COc2cc(Cl)ccc21` [Compound 10, (S)-2-benzyl-6-(8-chloro-5-methyl-4-oxo-2,3,4,5-tetrahydrobenzo[b][1,4]oxazepin-3-yl)-7-oxo-4,5,6,7-tetrahydro-2H-pyrazolo[3,4-c]pyridine-3-carboxamide], for which the EC50 is 6.3 nM and 7.8 nM on RIPK1 (read-out: EC50 (NanoBRET)); 7.85 nM on RIPK1 (read-out: EC50 (NanoBRET), Figure 4C). Moreover, the “cofilin phosphorylation (Western blot)” value is “weaker levels of phosphorylation” in assay [1] (100 nM); “almost completely abrogated” in assay [1] (1 μM and higher concentrations). In addition, the remaining activity at 1 µM in assay [2] came to 85%; on EGFR(G719S), 92%; on KIT(D816H) it was 97%. The figures for the remaining activity at 0.1 µM on FLT3(D835H), at FLT3(K663Q) and on PIK3CA(E545A) were 84%, 100% and 92%, respectively.
